According to patent publication US11925655B2, “FAP-activated therapeutic agents, and uses related thereto” (Bach Biosciences, LLC, priority 2014, dated 2024):
Where two headings read alike, the source gives them in different places. Each block holds one molecule with its values, some of them ahead of it.

How the values were obtained:
[1] = biological target: dipeptidyl peptidase IV (DPP IV) (Homo sapiens, UniProt P27487); assay: Specificity of activation: digest with DPP IV; type: biochemical; conditions: 100 μM prodrug, 24 hours at 37° C.
Method: (§1) Total doxorubicin was measured for each assay.

PREP = biological target: T1, PREP (Homo sapiens, UniProt P48147); assay: Specificity of activation: digest with PREP; type: biochemical; conditions: 100 μM prodrug, 24 hours at 37° C.
T1 sequence (P48147 1-710): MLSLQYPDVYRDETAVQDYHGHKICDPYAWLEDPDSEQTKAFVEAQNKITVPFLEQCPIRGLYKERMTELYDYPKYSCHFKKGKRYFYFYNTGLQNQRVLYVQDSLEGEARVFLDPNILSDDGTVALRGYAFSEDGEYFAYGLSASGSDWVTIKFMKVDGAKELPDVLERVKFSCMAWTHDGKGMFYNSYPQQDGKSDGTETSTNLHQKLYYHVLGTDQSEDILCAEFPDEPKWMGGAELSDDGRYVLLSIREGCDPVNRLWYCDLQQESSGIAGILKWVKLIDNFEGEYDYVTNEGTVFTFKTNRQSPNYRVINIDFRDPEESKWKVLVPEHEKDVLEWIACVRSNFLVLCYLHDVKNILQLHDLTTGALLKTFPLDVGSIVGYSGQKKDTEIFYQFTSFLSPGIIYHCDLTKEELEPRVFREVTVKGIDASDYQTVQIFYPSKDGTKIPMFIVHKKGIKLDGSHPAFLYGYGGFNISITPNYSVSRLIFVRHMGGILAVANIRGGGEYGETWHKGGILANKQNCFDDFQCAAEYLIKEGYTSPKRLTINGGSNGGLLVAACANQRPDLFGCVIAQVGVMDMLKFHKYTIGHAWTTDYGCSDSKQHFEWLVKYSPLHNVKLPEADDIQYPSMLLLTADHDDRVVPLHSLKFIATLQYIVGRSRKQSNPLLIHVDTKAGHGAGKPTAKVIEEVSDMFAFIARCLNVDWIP
Method: as §1

FAP [2] = biological target: T2, FAP (Homo sapiens, UniProt Q12884); assay: Specificity of activation: digest with FAP; type: biochemical; conditions: 100 μM prodrug, 24 hours at 37° C.
T2 sequence (Q12884 1-760): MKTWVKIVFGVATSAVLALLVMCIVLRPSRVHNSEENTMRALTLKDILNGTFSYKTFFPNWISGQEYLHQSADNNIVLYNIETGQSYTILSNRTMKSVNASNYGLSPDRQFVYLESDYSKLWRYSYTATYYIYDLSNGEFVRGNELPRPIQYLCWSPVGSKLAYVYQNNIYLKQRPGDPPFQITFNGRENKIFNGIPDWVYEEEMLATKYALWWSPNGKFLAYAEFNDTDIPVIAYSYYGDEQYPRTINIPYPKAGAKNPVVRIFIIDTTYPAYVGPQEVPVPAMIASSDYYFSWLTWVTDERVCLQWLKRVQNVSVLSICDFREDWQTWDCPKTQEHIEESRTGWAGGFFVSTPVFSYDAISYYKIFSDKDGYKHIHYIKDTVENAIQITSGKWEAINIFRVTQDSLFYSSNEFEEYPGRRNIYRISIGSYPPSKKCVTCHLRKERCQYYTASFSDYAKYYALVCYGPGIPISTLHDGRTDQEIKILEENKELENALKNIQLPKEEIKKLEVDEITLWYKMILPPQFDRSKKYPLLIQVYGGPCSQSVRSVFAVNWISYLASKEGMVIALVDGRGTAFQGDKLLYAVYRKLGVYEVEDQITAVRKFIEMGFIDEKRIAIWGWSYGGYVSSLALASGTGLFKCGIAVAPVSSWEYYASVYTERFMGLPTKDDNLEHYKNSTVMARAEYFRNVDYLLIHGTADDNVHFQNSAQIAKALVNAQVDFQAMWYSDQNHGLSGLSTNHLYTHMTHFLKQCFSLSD
Method: as §1

CT26 cells = assay: CellTiter-Blue cell viability assay with CT26 cells; type: cell-based; conditions: Mus musculus
FAP [3] = biological target: T2, FAP; assay: FAP digest of 5057DOX (kinetics); type: biochemical
SK-OV-3 = assay: CellTiter-Blue cell viability assay: SK-OV-3; type: cell-based; conditions: Homo sapiens, 5057DOX assay 5, 72 hour incubation
OVCAR-3 = assay: CellTiter-Blue cell viability assay: OVCAR-3; type: cell-based; conditions: Homo sapiens, 5057DOX assay 5, 72 hour incubation
FAP [4] = biological target: T2, FAP; assay: Selectivity of FAP over PREP (5057DOX activation by recombinant enzyme); type: biochemical; conditions: 240 nM 5057DOX, 12, 24 or 48 nM recombinant enzyme, 37° C., FIG. 12
Method: Recombinant enzyme (FAP or PREP) was combined, at reaction concentration of 12 nM, 24 nM, or 48 nM, with 240 nM 5057DOX in FAP buffer (50 mM Tris-HCl, pH 7.4, 140 mM NaCl) and incubated at 37° C. Reactions were stopped at 0, 10, 20, or 30 minutes by addition of equal volume of 10 μM Val-boroPro (FAP inhibitor). Doxorubicin was measured by liquid chromatography/mass spectroscopy (LCMS).

HEK-Mock cells = assay: CellTiter-Blue cell viability assay with HEK-Mock cells; type: cell-based; conditions: Homo sapiens, 72 h
MCF-7 = assay: CellTiter-Blue cell viability assay: MCF-7; type: cell-based; conditions: Homo sapiens, MCF7, 5057DOX assay 5, 72 hour incubation
HEK-mFAP cells = assay: CellTiter-Blue cell viability assay with HEK-mFAP cells; type: cell-based, human; conditions: Homo sapiens
[5] = Stability in mouse muscle lysate; conditions: 100 μM prodrug, 37° C., 12 h
[6] = tested on: COc1cccc2c1C(=O)c1c(O)c3c(c(O)c1C2=O)C[C@@](O)(C(=O)CO)C[C@@H]3OC1CC(NC(=O)[C@@H]2CC(F)(F)CN2C(=O)CNC(=O)c2ccnc3ccccc23)C(O)C(C)O1; assay: FAP digest of 5057DOX (kinetics); type: biochemical
[7] = tested on: COc1cccc2c1C(=O)c1c(O)c3c(c(O)c1C2=O)C[C@@](O)(C(=O)CO)C[C@@H]3OC1CC(NC(=O)[C@@H]2CCCN2C(=O)[C@@H](C)NC(=O)c2ccncc2)C(O)C(C)O1; type: biochemical; conditions: other: 1.34×10^−8 M FAP, 37° C., pH 7.5
Method: Michaelis-Menten enzyme kinetics for FAP were measured using a SpectraMax M2e microplate reader (Molecular Devices, Sunnyvale, CA, USA). The assays were performed in FAP buffer (50 mM Tris, 140 mM NaCl, pH 7.5) at 25° C., and the fluorescence continuously monitored at excitation and emission wavelengths of 380 and 460 nm, respectively. Kinetic constants (kcat and Km) were determined using GP-AMC (Bachem, Torrance, CA, USA), Ac-(D)-AP-AFC (MP Biomedicals, Solon, OH, USA) and test article concentrations equivalent to 0.1-5 times their respective Km values, and with 5-10 nM enzyme. All assays were performed in triplicate, and the results were calculated with a nonlinear regression analysis, relying on a Michaelis-Menten curve fit using GraphPad software.
3099DOX at various concentrations ranging from 8.5×10^−6 M to 6.9×10^−4 M was incubated with 1.34×10^−8 M FAP or PREP at 37° C., and released doxorubicin measured.

[8] = read-out: EC50 (prodrug + 25 nM FAP)
[9] = read-out: EC50 (prodrug + 100 uM 5057)
[10] = other: 5057DOX assay 6, [FAP] 4.00 × 10^−9M
[11] = other: 5057DOX assay 7, [FAP] 1 nM

Chain of dipeptidyl peptidase IV (DPP IV) (P27487 whole entry, species assumed): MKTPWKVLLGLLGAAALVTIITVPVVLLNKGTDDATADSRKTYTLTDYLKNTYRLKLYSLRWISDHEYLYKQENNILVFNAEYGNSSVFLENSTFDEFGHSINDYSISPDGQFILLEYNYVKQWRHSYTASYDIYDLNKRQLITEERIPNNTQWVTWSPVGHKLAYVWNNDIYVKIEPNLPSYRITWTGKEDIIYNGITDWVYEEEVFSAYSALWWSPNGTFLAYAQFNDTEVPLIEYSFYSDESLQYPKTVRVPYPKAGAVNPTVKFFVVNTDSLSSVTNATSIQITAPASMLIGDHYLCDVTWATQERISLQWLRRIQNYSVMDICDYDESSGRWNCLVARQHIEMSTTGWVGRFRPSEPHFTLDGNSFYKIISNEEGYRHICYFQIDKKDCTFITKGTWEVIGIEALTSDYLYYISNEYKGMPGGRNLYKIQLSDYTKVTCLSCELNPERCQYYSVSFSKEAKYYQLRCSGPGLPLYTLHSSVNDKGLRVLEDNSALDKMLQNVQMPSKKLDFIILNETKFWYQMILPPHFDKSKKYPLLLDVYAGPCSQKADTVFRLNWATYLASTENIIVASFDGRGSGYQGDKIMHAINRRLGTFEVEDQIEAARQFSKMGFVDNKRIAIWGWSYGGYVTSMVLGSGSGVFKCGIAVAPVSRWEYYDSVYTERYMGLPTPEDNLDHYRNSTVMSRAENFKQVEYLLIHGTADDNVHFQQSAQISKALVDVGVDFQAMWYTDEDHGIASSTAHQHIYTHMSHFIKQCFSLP

doxorubicin released by DPP IV [1]: essentially none
doxorubicin released by PREP (PREP): essentially none
doxorubicin released by FAP, relative amount (FAP [2]; as much doxorubicin as from the other prodrugs): about 15%
EC50 (CT26 cells; read-out: EC50 (prodrug + 50 nM FAP)): 26000 nM
EC50 (CT26 cells; read-out: EC50 (prodrug + 50 nM PREP)): 210000 nM
EC50 (CT26 cells; read-out: EC50 (prodrug alone)): 190000 nM
Molecule: COc1cccc2c1C(=O)c1c(O)c3c(c(O)c1C2=O)C[C@@](O)(C(=O)CO)C[C@@H]3OC1CC(NC(=O)[C@@H]2CCCN2C(=O)[C@@H](C)NC(=O)[C@H](CO)NC(=O)CCC(=O)O)C(O)C(C)O1 (stereo partly drawn) [Compound 3996DOX]

Kcat(Vmax/[E]) (FAP [3]; 5057DOX assay 6, [FAP] 4.00 × 10^−9M): Kcat(Vmax/[E]) 1.30 sec^−1
Vmax (FAP [3]; 5057DOX assay 7, [FAP] 1 nM, Dox standards, Daunorubicin internal standard): Vmax 9.80 × 10^−10M/sec
EC50 (SK-OV-3; [8]): 140 nM
EC50 (SK-OV-3; [9]): 56000 nM
EC50 (SK-OV-3; read-out: EC50 (prodrug alone)): 830 nM
EC50 (OVCAR-3; [8]): 1000 nM
EC50 (OVCAR-3; [9]): > 100000 nM
EC50 (OVCAR-3; read-out: EC50 (prodrug alone)): > 100000 nM
EC50 (MCF-7; [8]): 23000 nM
EC50 (MCF-7; [9]): > 100000 nM
EC50 (MCF-7; read-out: EC50 (prodrug alone)): > 100000 nM
Molecule: COc1cccc2c1C(=O)c1c(O)c3c(c(O)c1C2=O)C[C@@](O)(C(=O)CO)C[C@@H]3O[C@H]1C[C@H](NC(=O)[C@@H]2CC(F)(F)CN2C(=O)CNC(=O)c2ccnc3ccccc23)[C@H](O)[C@H](C)O1 [Compound 5057DOX]
activation by FAP as compared to PREP (FAP [4]): selectively activated by FAP as compared to PREP
EC50 (HEK-Mock cells; 5057DOX assay 1, 72 hour incubation, read-out: EC50 (prodrug + 25 nM FAP)): 36 nM
EC50 (HEK-Mock cells; 5057DOX assay 1, 72 hour incubation, read-out: EC50 (prodrug + 25 nM PREP)): 250 nM
EC50 (HEK-Mock cells; 5057DOX assay 1, 72 hour incubation, read-out: EC50 (prodrug alone)): 480 nM
EC50 (HEK-Mock cells; 5057DOX assay 2, 72 hour incubation, read-out: EC50 (prodrug + 25 nM FAP)): 26 nM
EC50 (HEK-Mock cells; 5057DOX assay 2, 72 hour incubation, read-out: EC50 (prodrug + 25 nM PREP)): 220 nM
EC50 (HEK-Mock cells; 5057DOX assay 2, 72 hour incubation, read-out: EC50 (prodrug + 100 uM 2054-9)): 9800 nM
EC50 (HEK-Mock cells; 5057DOX assay 2, 72 hour incubation, read-out: EC50 (prodrug alone)): 460 nM
EC50 (HEK-Mock cells; 5057DOX assay 3, 72 hour incubation, read-out: EC50 (prodrug + 100 uM 2054-9)): > 10000 nM
EC50 (HEK-Mock cells; 5057DOX assay 3, 72 hour incubation, read-out: EC50 (prodrug + 100 uM 3099-15)): > 100000 nM
EC50 (HEK-Mock cells; 5057DOX assay 3, 72 hour incubation, read-out: EC50 (prodrug alone)): 2300 nM
EC50 (HEK-Mock cells; 5057DOX assay 4, 72 hour incubation, read-out: EC50 (prodrug + 100 uM 5057)): > 100000 nM
EC50 (HEK-Mock cells; 5057DOX assay 4, 72 hour incubation, read-out: EC50 (prodrug alone)): 1100 nM
EC50 (HEK-mFAP cells; 72 h, 5057DOX assay 2, 72 hour incubation, read-out: EC50 (prodrug + 25 nM PREP)): 110 nM
EC50 (HEK-mFAP cells; 72 h, 5057DOX assay 2, 72 hour incubation, read-out: EC50 (prodrug + 100 uM 2054-9)): 740 nM
EC50 (HEK-mFAP cells; 72 h, 5057DOX assay 2, 72 hour incubation, read-out: EC50 (prodrug + 100 uM 3099-15)): > 10000 nM
EC50 (HEK-mFAP cells; 72 h, 5057DOX assay 2, 72 hour incubation, read-out: EC50 (prodrug alone)): 140 nM
EC50 (HEK-mFAP cells; 72 h, 5057DOX assay 3, 72 hour incubation, read-out: EC50 (prodrug + 100 uM 2054-9)): 5300 nM
EC50 (HEK-mFAP cells; 72 h, 5057DOX assay 3, 72 hour incubation, read-out: EC50 (prodrug + 100 uM 3099-15)): > 100000 nM
EC50 (HEK-mFAP cells; 72 h, 5057DOX assay 3, 72 hour incubation, read-out: EC50 (prodrug alone)): 600 nM
EC50 (HEK-mFAP cells; 72 h, 5057DOX assay 4, 72 hour incubation, read-out: EC50 (prodrug + 100 uM 5057)): > 100000 nM
EC50 (HEK-mFAP cells; 72 h, 5057DOX assay 4, 72 hour incubation, read-out: EC50 (prodrug alone)): 770 nM
EC50 (HEK-mFAP cells; 72 h, 5057DOX assay 8, 72 hour incubation, read-out: EC50 (prodrug + 100 uM 5057)): > 100000 nM
EC50 (HEK-mFAP cells; 72 h, 5057DOX assay 8, 72 hour incubation, read-out: EC50 (prodrug alone)): 1100 nM

Molecule: COc1cccc2c1C(=O)c1c(O)c3c(c(O)c1C2=O)C[C@@](O)(C(=O)CO)C[C@@H]3OC1CC(NC(=O)[C@@H]2CC(F)(F)CN2C(=O)[C@@H](C)NC(=O)c2ccnc3ccccc23)C(O)C(C)O1 (stereo partly drawn) [Compound 5107DOX]
EC50 (HEK-mFAP cells; 5107DOX assay, 72 hour incubation, read-out: EC50 (prodrug + 100 uM 5057-2)): > 100000 nM
EC50 (HEK-mFAP cells; 5107DOX assay, 72 hour incubation, read-out: EC50 (prodrug alone)): 940 nM

Molecule: COc1cccc2c1C(=O)c1c(O)c3c(c(O)c1C2=O)C[C@@](O)(C(=O)CO)C[C@@H]3O[C@H]1C[C@H](NC(=O)[C@@H]2CCCN2C(=O)CNC(=O)OCc2ccccc2)[C@H](O)[C@H](C)O1 [z-GP-DOX, reference compound]
doxorubicin released by DPP IV [1]: essentially none
doxorubicin released by PREP (PREP): A similar amount of doxorubicin was released
doxorubicin released by FAP (FAP [2]): A similar amount of doxorubicin was released
doxorubicin released in mouse muscle lysate [5]: a large amount of doxorubicin

Molecule: FAP (Homo sapiens)
Km [6, 10]: Km 1.11 × 10^−5M M
Vmax [6, 10]: Vmax 5.19 × 10^−9M/sec M/sec
kcat/Km [6, 10]: kcat/Km 1.17 × 10^5M^−1sec^−1 M^−1sec^−1
Km [6, 11]: Km 4.85 × 10^−6M M
kcat [6, 11]: Kcat 0.98 sec^−1 sec^−1
kcat/Km [6, 11]: Kcat/Km 2.00 × 10^5M^−1 sec^−1 M^−1 sec^−1
Km [7]: 11.2 µM
Vmax [7]: 5.877e-09 M/s
kcat [7]: 0.44 s⁻¹
kcat/Km [7]: 39171 M⁻¹ s⁻¹
